Structures can show the parent of a compound that is named as a salt. Where two headings read alike, the source gives them in different places.
Columns and labels:
mice = test system: mice; design: method as in PMID 5630492, PMID 13813939; conditions: cited from earlier work
NMRI mice = test: in vivo; assay type: in vivo; conditions: typically
Method: (§1) Female NMRI mice weighing 25–35 g were used for the experiments. Animals were kept in the Laboratory Animal House of the Department of Pharmacology and Pharmacotherapy (University of Pécs) under standard pathogen-free conditions, and were provided with food pellets and water ad libitum. Mice were weighed then treated intraperitoneally (i.p.) with CPZ (120–300 mg/kg, 10 mL/kg, dissolved in physiological saline). Since CPZ typically provoked convulsions after 2 min, SBECD or SGD (500 or 2000 mg/kg, 10 mL/kg, dissolved in physiological saline) was administered i.v. immediately after the CPZ treatment. Control animals were treated with physiological saline (10 mL/kg i.p. and/or i.v.). Before and after the treatment, mice could consume feed and water ad libitum.
(§2) We decided to administer CPZ intraperitoneally because it leads to the more rapid appearance of the drug in the systemic circulation compared to the per os treatment. […] However, we applied CDs (SBECD or SGD) intravenously to produce immediately their high plasma concentrations as well as to avoid any potential local interactions of CDs with CPZ in the abdominal cavity.
(§3) In agreement with the 3Rs, the up-and-down method was used. One animal is treated at a time, starting around the LD50 value estimated. If the animal survived, then the following animal was treated with a higher dose. If the animal died, then the following animal was treated with a lower dose. This method provides a good estimation of LD50, while the number of animals sacrificed can be minimized. LD50 values were determined with the Probit Analysis (CI = 95%) as has been reported.

in vivo = assay type: in vivo, mice; conditions: female, NMRI, mouse, in vivo, female NMRI mice, read-out: LD50 (based on 24 h mortality)
Method: as §1, §2, §3

[1] = test system: several different cell lines; design: method as in PMID 4801078, PMID 6896707, PMID 23689352; conditions: cited from earlier work
SH-SY5Y cells [2] = test: SH-SY5Y cell viability based on total protein levels (fluorescamine); design: species or system human; conditions: 24 h
Method: The SH-SY5Y cell line (neuroblastoma, human; ATCC: CRL-2266) was maintained in DMEM supplemented with 10% FBS, penicillin (100 U/mL) and streptomycin (100 µg/mL) and incubated at 37 °C in a humidified environment with 5% CO2. Cells were trypsinized then transferred to 96-well plates (10^4 cells/well). Next day, the medium has been replaced and cells were treated for 24 h with CPZ (0–100 μM), with CDs (0–1500 μM), or with the combinations of CPZ and CDs (final volume: 200 μL/well). After 24 h treatment of cells with CPZ and/or CDs, cells were washed three times with 200 μL of PBS (pH 7.4; also containing 0.18 g/L CaCl2, and 0.2 g/L MgCl2). […]
Since certain compounds can modify cellular ATP levels (which can disrupt the correlation of ATP concentration with the number of living cells), total protein measurements were also performed to confirm the ATP-based results. Total protein levels were determined with fluorescamine (Fluram) reagent, as has been previously reported. […] After homogenization, the fluorescence signals of these samples were determined with Enspire Multimode plate reader (PerkinElmer) employing 385 nm and 490 nm as excitation and emission wavelengths, respectively. Total protein concentrations were determined based on bovine serum albumin calibration curve. […]

SH-SY5Y cells [3] = test: SH-SY5Y cell viability based on cellular ATP levels (luciferin-luciferase); design: species or system human; conditions: 24 h
Method: The SH-SY5Y cell line (neuroblastoma, human; ATCC: CRL-2266) was maintained in DMEM supplemented with 10% FBS, penicillin (100 U/mL) and streptomycin (100 µg/mL) and incubated at 37 °C in a humidified environment with 5% CO2. Cells were trypsinized then transferred to 96-well plates (10^4 cells/well). Next day, the medium has been replaced and cells were treated for 24 h with CPZ (0–100 μM), with CDs (0–1500 μM), or with the combinations of CPZ and CDs (final volume: 200 μL/well). After 24 h treatment of cells with CPZ and/or CDs, cells were washed three times with 200 μL of PBS (pH 7.4; also containing 0.18 g/L CaCl2, and 0.2 g/L MgCl2). Since cell death results in the detachment of cells from the plate, these floating cells and cell debris were removed from the well during these washing steps. Cells were lysed with 200 μL of borate buffer (0.2 M, pH 9.2) containing Triton X-100 (0.1%) detergent and ethylenediaminetetraacetic acid (EDTA, 20 mM), then the plate was placed in a shaker for 5 min. These lysates were applied in cellular ATP and total protein analyses.
The changes in cell viability were primarily evaluated based on ATP levels. ATP content is an indicator of metabolically active cells; therefore, cellular ATP concentration is a suitable parameter to assess the number of viable cells. ATP levels were quantified based on the luciferin-luciferase reaction adapted for microplate method, as has been described earlier. To quantify cellular ATP concentrations, a 10 μL/well volume of lysates was transferred into white 96-well optical plates (VWR, Debrecen, Hungary), after which 100 μL/well of the dissolved ATP reagent was added. Luminescence data of ATP standards and samples were measured with 5 s integration time, employing an Enspire Multimode reader (Perkin Elmer, Waltham, MA, US).
IC50 values were determined by sigmoidal fitting (Hill1) employing the Origin software (OriginLab Corporation, Northampton, MA, US). Statistical analyses were performed employing one-way ANOVA (with Tukey post hoc) test using the IBM SPSS Statistics software (Armonk, NY, US), where the level of significance was set as p < 0.01.

[4] = design: method as in PMID 16553456; conditions: in regard to cholesterol; cited from earlier work
[5] = design: method as in PMID 32376444; conditions: CPZ complex, cited from earlier work
[6] = veratridine toxin–CD complexes; cited from earlier work
[7] = design: method as in PMID 31726616, PMID 36031178; conditions: complexes with zearalenone; cited from earlier work
HeLa cells = test system: HeLa cells; design: method as in PMID 36031178; conditions: cited from earlier work
[8] = Homo sapiens, SH-SY5Y cells, sigmoidal fitting

In the case of `CN(C)CCCN1c2ccccc2Sc2ccc(Cl)cc21` [CPZ, Chlorpromazine hydrochloride], the “i.p. LD50” value (mice) is listed as 150 to 220 mg/kg, the “time after which CPZ provoked convulsions” value (NMRI mice; CPZ i.p. 120–300 mg/kg) is listed as 2 min and the “time in which CPZ caused its lethal impact” value (NMRI mice; CPZ i.p., with a few exceptions) is listed as no more than 2 h. For the same compound, the LD50 (in vivo; 500 mg/kg, CPZ i.p. + 500 mg/kg SBECD i.v.) was 206 mg/kg, the LD50 (in vivo; 500 mg/kg, CPZ i.p. + 500 mg/kg SGD i.v.) was 200 mg/kg and the LD50 (in vivo; 2000 mg/kg, CPZ i.p. + 2000 mg/kg SBECD i.v.) was 233 mg/kg. For the same compound, the LD50 (in vivo; 2000 mg/kg, CPZ i.p. + 2000 mg/kg SGD i.v.) was 172 mg/kg, the LD50 (in vivo; CPZ i.p., control (physiological saline i.v.)) was 194 mg/kg and the “concentration range of significant toxic effects” value [1] was 10 to 60 µM. The “decrease in total protein levels” value (SH-SY5Y cells [2]; 20 μM CPZ) was “approximately 60%”, the IC50 (SH-SY5Y cells [2]; [8]) was 15.1 µM and the “concentration showing close the maximal toxicity” value (SH-SY5Y cells [3]; 0–100 μM tested) was 50 µM. The “lowest concentration causing statistically significant (p < 0.01) decrease of ATP and total protein levels/well” value (SH-SY5Y cells [3]; 0–100 μM tested) was 5 µM, the “decrease in ATP levels” value (SH-SY5Y cells [3]; 20 μM CPZ) was “approximately 60%” and the IC50 (SH-SY5Y cells [3]; [8]) was 16 µM.

For dimethyl-β-CD, the binding constant [4] is given as 600000 L/mol.

In the case of `CC(O)COC[C@H]1O[C@@H]2O[C@H]3[C@H](O)[C@@H](O)[C@@H](O[C@H]4[C@H](O)[C@@H](O)[C@@H](O[C@H]5[C@H](O)[C@@H](O)[C@@H](O[C@H]6[C@H](O)[C@@H](O)[C@@H](O[C@H]7[C@H](O)[C@@H](O)[C@@H](O[C@H]8[C@H](O)[C@@H](O)[C@@H](O[C@H]1[C@H](O)[C@H]2O)O[C@@H]8COCC(C)O)O[C@@H]7COCC(C)O)O[C@@H]6COCC(C)O)O[C@@H]5COCC(C)O)O[C@@H]4COCC(C)O)O[C@@H]3COCC(C)O` (stereo partly drawn) [HPBCD, hydroxypropyl-β-CD], the binding constant [4] is listed as 20000 L/mol.

In the case of `OC[C@H]1O[C@@H]2O[C@H]3[C@H](O)[C@@H](O)[C@@H](O[C@H]4[C@H](O)[C@@H](O)[C@@H](O[C@H]5[C@H](O)[C@@H](O)[C@@H](O[C@H]6[C@H](O)[C@@H](O)[C@@H](O[C@H]7[C@H](O)[C@@H](O)[C@@H](O[C@H]8[C@H](O)[C@@H](O)[C@@H](O[C@H]9[C@H](O)[C@@H](O)[C@@H](O[C@H]1[C@H](O)[C@H]2O)O[C@@H]9CO)O[C@@H]8CO)O[C@@H]7CO)O[C@@H]6CO)O[C@@H]5CO)O[C@@H]4CO)O[C@@H]3CO` [γ-CD], the “binding constant (K), 1:1 complexes” value ([5]; 1:1) is given as 500 L/mol, the “binding constant (K), 1:2 complexes” value ([5]; 1:2) is given as 6000 L/mol and the “binding constant (K)” value [6] is given as “approximately 10^4 L/mol”.

For succinyl–methyl-β-CD, the binding constant [7] is given as 10000 to 50000 L/mol.

For methyl-β-CD, the binding constant [7] is listed as 10000 to 50000 L/mol.

For `OC[C@H]1O[C@@H]2O[C@H]3[C@H](O)[C@@H](O)[C@@H](O[C@H]4[C@H](O)[C@@H](O)[C@@H](O[C@H]5[C@H](O)[C@@H](O)[C@@H](O[C@H]6[C@H](O)[C@@H](O)[C@@H](O[C@H]7[C@H](O)[C@@H](O)[C@@H](O[C@H]8[C@H](O)[C@@H](O)[C@@H](O[C@H]1[C@H](O)[C@H]2O)O[C@@H]8CO)O[C@@H]7CO)O[C@@H]6CO)O[C@@H]5CO)O[C@@H]4CO)O[C@@H]3CO` [β-CD], the “effect on alternariol-induced cytotoxicity” value (HeLa cells) is given as “did not affect”.
